Results on seven molecules are retold here after US20220009914A1, “Analogs of Nitrofuran Antibiotics to Combat Resistance” (The Trustees of Indiana University, priority 2020, published 2022).

The subject of data set [1] is E. coli and the ESKAPE bacteria. Briefly: bacterial proliferation assays, whole panel (results in words). Format: cell-based. The protocol: All compounds were evaluated for inhibiting the proliferation of E. coli and each of the ESKAPE bacteria. Results presented represent the averages of EC50 values obtained from at least four replicates. Evaluating compounds for inhibition of bacterial cell proliferation.
Growth Media: E. coli were grown with LB medium and all ESKAPE bacteria were grown in Brain Heart Infusion (BHI) medium (Becton, Dickinson and Company), with all liquid cultures supplemented with 25 mg/L Ca^2+ and 12.5 mg/L Mg^2+ to mimic physiological free concentrations of these cations. A 10 mg/mL Ca^2+ stock solution was prepared by dissolving 1.84 g of CaCl2.2H2O in 50 mL of deionized water, and a 10 mg/mL Mg^2+ stock solution was prepared by dissolving 4.18 g of MgCl2.6H2O in 50 mL deionized water—filter sterilized using 0.2 μm cellulose-acetate filters. 2.5 mL of the sterile 10 mg/mL Ca^2+ stock and 1.25 mL of the sterile 10 mg/mL Mg^2+ stock solutions were added per 1 L of autoclaved LB or BHI media to obtain 25 mg/L Ca^2+ and 12.5 mg/L Mg^2+ ions, respectively.
General Assay Protocol: Stock bacterial cultures were streaked onto LB or BHI agar plates and grown overnight at 37° C. Fresh aliquots of cation supplemented media were inoculated with single bacterial colonies and the cultures were grown overnight at 37° C. with shaking (240 rpm). […] The cultures were then diluted into fresh media to achieve final OD600 readings of 0.017. […] A second set of baseline control plates were prepared analogously, but without any bacteria added, to correct for possible compound absorbance and/or precipitation. […] Plates were then read at 600 nm using a Molecular Devices SpectraMax Plus384 microplate reader. […]
Evaluating analogs for inhibiting the growth of E. coli and the ESKAPE bacteria. […] After addition of compounds to cultures, the plates were sealed with Breathe-Easy gas permeable membranes and allowed to grow to mid-log phase (OD600˜0.4-0.6), whereupon final OD600 readings were taken to assess for bacterial growth and inhibition.

Data set [2] concerns the target T1, E. coli GroEL/ES (Escherichia coli, UniProt P0A6F5).
T1 construct: made in house; host or cells: GroEL in NEB 5-alpha E. coli; GroES in E. coli BL21 (DE3)
The following applies: read-out: IC50 GroEL/ES-mediated refolding of denatured rhodanese; previously found; cited from earlier work.

Data set [3] deals with Klebsiella pneumoniae strain NCTC 9633 (ATCC #13883). The following applies: previously found; read-out: EC50 proliferation of K. pneumoniae; cited from earlier work.
Data set [4] has as its system Acinetobacter baumannii strain 2208 (ATCC 19606). The following applies: previously found; read-out: EC50 proliferation of A. baumannii; cited from earlier work.
The subject of data set [5] is SM101 E. coli. The conditions noted are these: previously found; read-out: EC50 proliferation of SM101 E. coli; cited from earlier work.
Data set [6] relates to FHC colon cells. Briefly: in vitro. The conditions noted are these: for CC50: human, 48 h. The protocol: (§1) Evaluating compound effects on the viability of human colon and small intestine cells. […] Evaluating compound effects on the viability of human colon and small intestine cells. Evaluation of compound cytotoxicities to FHC colon and FHs 74 Int small intestine cells were performed using Alamar Blue-based viability assays. […] FHs 74 Int cells were maintained in Hybri-care medium (ATCC 46-X) supplemented with 30 ng/mL recombinant epidermal growth factor (EGF) and 10% FBS (Midwest Scientific, USDAFBS).

The test system of data set [7] is FHs 74 Int small intestine cells. Briefly: in vitro. The following applies: for CC50: human, 48 h. The protocol: as §1
Data set [8] relates to NEB 5-alpha E. coli. Briefly: microbe, parasite or virus in culture. The conditions noted are these: for resistance of the maximally-resistant strain to its inhibitor after passaging without compound: 4×12 h serial passages without test compounds, then 24 h proliferation assay; for EC50: Escherichia coli, read-out: EC50 plateau after intermediate resistance. Format: cell-based, Escherichia coli. The protocol:
Evaluating the ability of E. coli to generate resistance to lead inhibitors. […] NEB 5-alpha E. coli bacteria were streaked onto an LB agar plate and grown overnight at 37° C. […] The overnight cultures were then sub-cultured (10× dilution) into fresh media solutions and grown at 37° C. to mid-log phase, then diluted into fresh media to achieve two separate cultures with final OD600 readings of 0.01. […] Test compounds were evaluated in duplicate with concentration ranges during the resistance assay from 100 μM to 48.8 nM, 2-fold dilution series. […] OD600 readings were taken at the 24 h time point to monitor for bacterial growth. A second baseline control plate was prepared analogously, without any bacteria added, to correct for possible compound absorbance and/or precipitation. For inoculations on subsequent days, bacteria from the wells with the highest test compound concentration where the OD600 was >0.2, were sub-cultured in 5 mL of fresh media at 37° C. until mid-log phase growth was reached. Separate cultures were maintained from this point forward for each of the compound replicates—i.e. 6 cultures continually propagated. The bacteria were then diluted into fresh media to OD600 of 0.01 and the bacteria were propagated again as described above.

Data set [9] has as its system nitrofurantoin resistant E. coli. Format: cell-based, Escherichia coli.
For data set [10], the system named is compound 17 resistant E. coli.
The subject of data set [11] is nifuroxazide resistant E. coli. Format: cell-based, Escherichia coli.
Setting [12] is: E. coli and the ESKAPE pathogens.
Setting [13] is: CC50 colon cells over EC50 E. coli proliferation.
Where [14] appears, read: CC50 intestine cells over EC50 E. coli proliferation.

Bounds are passed on as bounds.

T1 sequence (P0A6F5 2-548): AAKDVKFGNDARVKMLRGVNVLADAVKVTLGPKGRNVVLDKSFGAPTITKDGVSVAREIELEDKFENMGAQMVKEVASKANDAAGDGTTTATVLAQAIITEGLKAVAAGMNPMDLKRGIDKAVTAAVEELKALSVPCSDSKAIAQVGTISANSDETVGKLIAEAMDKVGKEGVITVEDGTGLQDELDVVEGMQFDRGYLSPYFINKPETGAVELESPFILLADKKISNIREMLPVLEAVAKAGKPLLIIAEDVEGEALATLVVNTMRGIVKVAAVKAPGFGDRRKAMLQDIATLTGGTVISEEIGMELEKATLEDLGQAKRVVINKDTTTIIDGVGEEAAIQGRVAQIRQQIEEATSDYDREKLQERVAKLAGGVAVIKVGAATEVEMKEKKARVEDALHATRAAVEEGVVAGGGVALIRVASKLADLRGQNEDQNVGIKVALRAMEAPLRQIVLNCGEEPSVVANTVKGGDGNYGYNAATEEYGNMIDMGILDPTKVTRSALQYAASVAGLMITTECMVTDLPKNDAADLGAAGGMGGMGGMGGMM

Regarding `O=Cc1ccc(O)c2ncccc12` [Compound 40, reference compound], in data set [1] (setting [12]), the “antibacterial efficacy in words” value is on record as “potent inhibitors of nearly all the bacteria (excluding P. aeruginosa)”.

For the molecule `COc1ccc(C(=O)N/N=C/c2ccc(O)c3ncccc23)cc1` [Compound 1, N′-((8-hydroxyquinolin-5-yl)methylene)-4-methoxybenzohydrazide], in data set [2], the IC50 was 18 µM. The EC50 was 95 µM in [3], 32 µM in data set [4] and 19 µM in data set [5].

Usually CC50 stands for the concentration giving 50% cytotoxicity. The low end stands for harm at low concentration, the high end for better tolerance by the cells. As for `CN(C)c1ccc(C(=O)N/N=C/c2ccc([N+](=O)[O-])o2)cc1` [Compound 21, 4-(dimethylamino)-N′-((5-nitrofuran-2-yl)methylene)benzohydrazide], in data set [6], the “SI (CC50/EC50) Colon” value was more than 10 and the CC50 was more than 100 µM. Further, in data set [7], the “SI (CC50/EC50) Intestine” value is given as 9.3 and half-maximal cytotoxicity (CC50) was put at 93 µM. Further, the “antibacterial efficacy in words” value in data set [1] (Gram-positive E. faecium and S. aureus) is “less effective (or inactive)”.

For the molecule `O=C(N/N=C/c1ccc([N+](=O)[O-])o1)c1ccc(O)cc1` [Nifuroxazide, reference compound], the “SI (CC50/EC50) Colon” value in data set [6] (setting [13]) was 70. In data set [6], this molecule gave a CC50 of 61 µM. In addition, in data set [7], the “cytotoxicity to human cells in words” value is listed as “low to no cytotoxicity” and the CC50 worked out at 79 µM. In data set [7] (setting [14]), the “SI (CC50/EC50) Intestine” value is listed as 91. Moreover, in data set [8], the “resistance of the maximally-resistant strain to its inhibitor after passaging without compound” value was “still resistant” and the EC50 is 20 to 40 µM. Moreover, in [9], the “response of nitrofurantoin-resistant strains to the other inhibitor” value is given as “still sensitive”. In addition, the “17-resistant strains susceptible to the other inhibitor” value in data set [10] was “susceptible”.

Consider `O=C(N/N=C/c1ccc([N+](=O)[O-])o1)c1ccc(Cl)s1` [Compound 17, 5-chloro-N′-((5-nitrofuran-2-yl)methylene)thiophene-2-carbohydrazide], for which, in data set [6], the “SI (CC50/EC50) Colon” value was 119 and half-maximal cytotoxicity (CC50) was put at 53 µM. Also, in data set [7], the “SI (CC50/EC50) Intestine” value was 190; the “cytotoxicity to human cells in words” value is reported as “low to no cytotoxicity”; the midpoint of cytotoxicity, the CC50, lay at 85 µM. In addition, in data set [8], the “resistance of the maximally-resistant strain to its inhibitor after passaging without compound” value is listed as “still resistant” and the EC50 fell in the range of 20 to 40 µM. Further, in [11], the “response of nifuroxazide-resistant strains to the other inhibitor” value was “cross-resistant”. The “response of nitrofurantoin-resistant strains to the other inhibitor” value in [9] is reported as “still sensitive”.

Regarding `O=C1CN(/N=C/c2ccc([N+](=O)[O-])o2)C(=O)N1` [Nitrofurantoin, reference compound], in data set [6] (setting [13]), the “SI (CC50/EC50) Colon” value is more than 146. In addition, in data set [6], the CC50 was more than 100 µM. Moreover, in data set [7], the “cytotoxicity to human cells in words” value is recorded as “low to no cytotoxicity” and the CC50 is more than 100 µM. In [7] (setting [14]), the “SI (CC50/EC50) Intestine” value was more than 146. Further, in [8], the “resistance of the maximally-resistant strain to its inhibitor after passaging without compound” value is reported as “still resistant” and the EC50 lay in the range of 20 to 40 µM. Besides, the “response of nifuroxazide-resistant strains to the other inhibitor” value in [11] is reported as “cross-resistant”. Further, in data set [10], the “17-resistant strains susceptible to the other inhibitor” value is recorded as “not”.

`O=Cc1ccc([N+](=O)[O-])o1` [Compound 41, reference compound]: the “antibacterial efficacy in words” value in data set [1] (setting [12]) is “potent inhibitors of nearly all the bacteria (excluding P. aeruginosa)”.
